Patent publication US4180587A, “Ureylene phenylene anionic naphthalenesulfonic acids as complement inhibitors” (American Cyanamid Company, priority 1978, dated 1979)
Like-named read-outs stand apart in the source and are kept apart here.

How the values were obtained:
human C1 = test: Test Code 026 (C1 inhibitor): ability of activated human C1 to destroy fluid phase human C2 in the presence of C4; type: biochemical; conditions: activity in wells, twofold serial dilution; higher well number indicates higher activity
From the text: (§1) An active inhibitor protects C2 from C1 and C4; (ii) Test Code 035 (C3-C9 inhibitor)--This test determines the ability of the late components of human complement (C3-C9) to lyse EAC 142 in the presence of appropriate dilutions of the test compound. An active inhibitor protects EAC 142 from lysis by human C3-C9; (iii) Test Code 036 (C-Shunt inhibitor)--In this test human erythrocytes rendered fragile are lysed in autologous serum via the shunt pathway activated by cobra venom factor in the presence of appropriate dilutions of the test compound. Inhibition of the shunt pathway results in failure of lysis; (iv) Forssman Vasculitis Test--Here, the well known complement dependent lesion, Forssman vasculitis, is produced in guinea pigs by intradermal injection of rabbit anti-Forssman antiserum. […]

shunt pathway = test: Test Code 036 (C-Shunt inhibitor): lysis of fragile human erythrocytes in autologous serum via shunt pathway activated by cobra venom factor; type: cell-based; conditions: activity in wells, twofold serial dilution
From the text: as §1

[1] = tested on: late components of human complement (C3-C9); test: Test Code 035 (C3-C9 inhibitor): lysis of EAC 142 by late components of human complement; type: cell-based; conditions: activity in wells, twofold serial dilution; higher well number indicates higher activity
From the text: as §1

whole complement = test: Complement Level Reduction Test: serum of dosed guinea pigs tested for whole complement by capillary tube assay; type: in vivo, guinea pig; conditions: intraperitoneal, 200 mg/kg
From the text: An active inhibitor protects C2 from C1 and C4; (ii) Test Code 035 (C3-C9 inhibitor)--This test determines the ability of the late components of human complement (C3-C9) to lyse EAC 142 in the presence of appropriate dilutions of the test compound. An active inhibitor protects EAC 142 from lysis by human C3-C9; (iii) Test Code 036 (C-Shunt inhibitor)--In this test human erythrocytes rendered fragile are lysed in autologous serum via the shunt pathway activated by cobra venom factor in the presence of appropriate dilutions of the test compound. Inhibition of the shunt pathway results in failure of lysis; (iv) Forssman Vasculitis Test--Here, the well known complement dependent lesion, Forssman vasculitis, is produced in guinea pigs by intradermal injection of rabbit anti-Forssman antiserum. The lesion is measured in terms of diameter, edema and hemorrhage and the extent to which a combined index of these is inhibited by prior intraperitoneal injection of the test compound at 200 mg/kg is then reported, unless otherwise stated; (v) Forssman Shock Test--Lethal shock is produced in guinea pigs by an i.v. injection of anti-Forssman antiserum and the harmonic mean death time of treated guinea pigs is compared with that of simultaneous controls; (vi) Complement Level Reduction Test--In this test, the above dosed guinea pigs, or others, are bled for serum and the complement level is determined in undiluted serum by the capillary tube method of U.S. Pat. No. 3,876,376 and compared to undosed control guinea pigs; and (vii) Cap 50 Test--Here, appropriate amounts of the test compound are added to a pool of guinea pig serum in vitro, after which the undiluted serum capillary tube assay referred to above is run. The concentration of compound inhibiting 50% is reported.
With reference to Table I, guinea pigs weighing about 300 g were dosed intravenously (i.v.) or intraperitoneally (i.p.) with 200 mg/kg of the test compound dissolved in saline and adjusted to pH 7-8. […] The serum was tested for whole complement using the capillary tube assay. Percent inhibition was calculated by comparison with simultaneous controls. The results appear in Table I together with results of tests code 026, 035, 036, Cap 50, % inhibition and Forssman shock.

complement system = conditions: reported in literature; cited from earlier work
[2] = reported in literature; cited from earlier work
[3] = tested on: total hemolytic complement activity; conditions: in vitro; judged by reduction in total hemolytic complement activity; cited from earlier work
[4] = tested on: total hemolytic complement activity; conditions: in vivo; judged by reduction in total hemolytic complement activity; cited from earlier work

Cc1ccc(C(=O)Nc2cc(C(=O)Nc3ccc(S(=O)(=O)[O-])c4cc(S(=O)(=O)[O-])cc(S(=O)(=O)[O-])c34)ccc2C)cc1NC(=O)Nc1cc(C(=O)Nc2cc(C(=O)Nc3ccc(S(=O)(=O)[O-])c4cc(S(=O)(=O)[O-])cc(S(=O)(=O)[O-])c34)ccc2C)ccc1C.[Na+].[Na+].[Na+].[Na+].[Na+].[Na+] [Example 3, 8,8'-[Ureylenebis[(4-methyl-3,1-phenylenecarbonyl)imino(4-methyl-3,1-phenylenecarbonyl)imino]]di-1,3,5-naphthalenetrisulfonic acid, hexasodium salt]
C1 026 Wells (human C1): +3 Wells | Shunt Inhibition 036 Wells (shunt pathway): N | C-Late 035 Wells [1]: +3 Wells | In Vivo Activity (Guinea Pig) % Inhibition (whole complement; 30 minutes): -58% | In Vivo Activity (Guinea Pig) % Inhibition (whole complement; 60 minutes): -65% | In Vivo Activity (Guinea Pig) % Inhibition (whole complement; 120 minutes): -77%

Cc1ccc(C(=O)Nc2ccc(S(=O)(=O)O)c3cc(S(=O)(=O)O)cc(S(=O)(=O)O)c23)cc1NC(=O)c1cccc(NC(=O)Nc2cccc(C(=O)Nc3cc(C(=O)Nc4ccc(S(=O)(=O)O)c5cc(S(=O)(=O)O)cc(S(=O)(=O)O)c45)ccc3C)c2)c1 [Suramin]
C1 026 Wells (human C1): +4 Wells | anticomplementary effect / activity as complement inhibitor (complement system): moderately active as a complement inhibitor | C-Late 035 Wells [1]: +2 Wells | In Vivo Activity (Guinea Pig) % Inhibition (whole complement; 30 minutes): -9% | In Vivo Activity (Guinea Pig) % Inhibition (whole complement; 60 minutes): -17% | In Vivo Activity (Guinea Pig) % Inhibition (whole complement; 120 minutes): -44%

Nc1ccc2cc(S(=O)(=O)[O-])cc(O)c2c1N=Nc1ccc(NC(=O)Nc2ccc(N=Nc3c(N)ccc4cc(S(=O)(=O)[O-])cc(O)c34)c(S(=O)(=O)[O-])c2)cc1S(=O)(=O)[O-].[Na+].[Na+].[Na+].[Na+] [chlorazol fast pink, 3,3'-ureylenebis[6-(2-amino-8-hydroxy-6-sulfo-1-naphthylazo)benzenesulfonic acid], tetrasodium salt]
anticomplementary effect / activity as complement inhibitor (complement system): anticomplementary effect

NCCCCCC(=O)O [epsilon-aminocaproic acid]
treatment of hereditary angioneurotic edema [2]: used with success

NC[C@H]1CC[C@H](C(=O)O)CC1 [tranexamic acid]
treatment of hereditary angioneurotic edema [2]: used with success

heparin
anticomplementary effect / activity as complement inhibitor (complement system): anticomplementary effect

pentosan-polysulfoester
anticomplementary activity on human serum [3]: anticomplementary activity | anticomplementary activity on human serum [4]: anticomplementary activity
